Data as given in patent US20200165291A1, “NEUROACTIVE STEROIDS, COMPOSITIONS, AND USES THEREOF” (Sage Therapeutics, Inc., priority 2014, published 2020).
Like-named read-outs stand apart in the source and are kept apart here.

Legend:
[1] = biological target: [35S]-TBPS binding, rat brain cortical membranes (GABA receptor complex); assay: [35S]-TBPS binding (steroid inhibition of TBPS binding); settings: in the presence of 5 μM GABA, read-out: 35S-TBPS Radioligand Displacement
Procedure: [35S]-t-Butylbicyclophosphorothionate (TBPS) binding assays using rat brain cortical membranes in the presence of 5 μM GABA has been described (Gee et al, J. Pharmacol. Exp. Ther. 1987, 241, 346-353; Hawkinson et al, Mol. Pharmacol. 1994, 46, 977-985; Lewin, A. H et al., Mol. Pharmacol. 1989, 35, 189-194).
Briefly, cortices are rapidly removed following decapitation of carbon dioxide-anesthetized Sprague-Dawley rats (200-250 g). The cortices are homogenized in 10 volumes of ice-cold 0.32 M sucrose using a glass/teflon homogenizer and centrifuged at 1500×g for 10 min at 4° C. The resultant supernatants are centrifuged at 10,000×g for 20 min at 4° C. to obtain the P2 pellets. The P2 pellets are resuspended in 200 mM NaCl/50 mM Na-K phosphate pH 7.4 buffer and centrifuged at 10,000×g for 10 min at 4° C. This washing procedure is repeated twice and the pellets are resuspended in 10 volumes of buffer. Aliquots (100 μL) of the membrane suspensions are incubated with 3 nM [^35S]-TBPS and 5 μL aliquots of test drug dissolved in dimethyl sulfoxide (DMSO) (final 0.5%) in the presence of 5 μM GABA. The incubation is brought to a final volume of 1.0 mL with buffer. Nonspecific binding is determined in the presence of 2 μM unlabeled TBPS and ranged from 15 to 25%. Following a 90 min incubation at room temp, the assays are terminated by filtration through glass fiber filters (Schleicher and Schuell No. 32) using a cell harvester (Brandel) and rinsed three times with ice-cold buffer. Filter bound radioactivity is measured by liquid scintillation spectrometry. Non-linear curve fitting of the overall data for each drug averaged for each concentration is done using Prism (GraphPad). […] The concentration of test compound producing 50% inhibition (IC50) of specific binding and the maximal extent of inhibition (Imax) are determined for the individual experiments with the same model used for the overall data and then the means±SEM.s of the individual experiments are calculated.
Various compounds are or can be screened to determine their potential as modulators of [^35S]-TBPS binding in vitro. These assays are or can be performed in accordance with the above discussed procedures.

[2] = biological target: T1, recombinant α1β2γ2 GABAA receptors (Homo sapiens, UniProt P14867+P47870); assay: Patch clamp electrophysiology, QPatch, LTK cells; type: cell-based; settings: 10 μM test article, GABA EC20 = 2 μM, read-out: GABA (α1β2γ2) Qpatch in Ltk, % efficacy at 10 μM
T1 construct: expressed in transfected cells
T1 sequence (P14867 28-456): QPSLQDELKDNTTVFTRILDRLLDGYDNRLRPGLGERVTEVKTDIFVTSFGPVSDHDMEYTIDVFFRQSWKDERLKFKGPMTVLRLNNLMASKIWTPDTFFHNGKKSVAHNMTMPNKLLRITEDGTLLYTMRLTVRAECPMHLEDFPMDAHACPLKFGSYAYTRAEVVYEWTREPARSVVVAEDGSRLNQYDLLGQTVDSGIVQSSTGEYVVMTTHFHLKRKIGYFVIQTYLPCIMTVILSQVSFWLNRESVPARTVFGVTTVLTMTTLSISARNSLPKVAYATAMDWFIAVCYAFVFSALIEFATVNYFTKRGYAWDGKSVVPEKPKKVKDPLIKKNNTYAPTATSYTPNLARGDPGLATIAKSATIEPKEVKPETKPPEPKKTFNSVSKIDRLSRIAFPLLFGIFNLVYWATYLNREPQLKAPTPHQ
T1 sequence (P47870 25-512 limits assumed): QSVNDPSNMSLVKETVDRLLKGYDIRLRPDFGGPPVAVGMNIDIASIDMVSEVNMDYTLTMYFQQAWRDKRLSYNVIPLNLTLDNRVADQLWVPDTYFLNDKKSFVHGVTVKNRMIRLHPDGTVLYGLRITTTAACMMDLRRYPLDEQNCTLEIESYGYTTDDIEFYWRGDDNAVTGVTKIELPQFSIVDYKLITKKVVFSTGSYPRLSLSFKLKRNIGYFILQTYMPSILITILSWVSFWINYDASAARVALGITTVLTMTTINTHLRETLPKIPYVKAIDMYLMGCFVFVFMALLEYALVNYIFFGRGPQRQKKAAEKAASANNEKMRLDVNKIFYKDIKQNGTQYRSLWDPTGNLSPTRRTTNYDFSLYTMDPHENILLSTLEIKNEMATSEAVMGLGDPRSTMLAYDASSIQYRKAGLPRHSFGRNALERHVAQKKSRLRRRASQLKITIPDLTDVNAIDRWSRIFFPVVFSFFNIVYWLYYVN
T1 sequence (P18507 40-475 partner): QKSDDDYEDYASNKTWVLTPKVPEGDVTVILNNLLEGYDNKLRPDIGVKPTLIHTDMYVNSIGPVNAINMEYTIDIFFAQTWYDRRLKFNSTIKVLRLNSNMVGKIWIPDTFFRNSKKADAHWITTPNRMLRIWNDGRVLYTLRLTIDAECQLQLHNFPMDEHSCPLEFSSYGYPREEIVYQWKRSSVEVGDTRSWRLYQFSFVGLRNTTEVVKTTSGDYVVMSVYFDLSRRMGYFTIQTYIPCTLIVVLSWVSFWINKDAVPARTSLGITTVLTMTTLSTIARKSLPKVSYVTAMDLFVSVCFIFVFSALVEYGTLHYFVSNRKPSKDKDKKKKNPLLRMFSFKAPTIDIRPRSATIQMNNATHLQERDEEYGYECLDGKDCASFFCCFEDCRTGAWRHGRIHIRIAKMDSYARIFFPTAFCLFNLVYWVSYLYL

Structure (SMILES)	IC50 [1] [nM]	Emax at 10 µM [2] [%]	Emax at 10 µM ([2]; in cremophor) [%]
CCOC[C@@]1(O)CC[C@H]2[C@@H](CC[C@@H]3[C@@H]2CC[C@]2(C)[C@@H](C(=O)Cn4nnnc4C)CC[C@@H]32)C1 [SQ-5]	> 500		
COC[C@@]1(O)CC[C@H]2[C@H](CC[C@@H]3[C@@H]2CC[C@]2(C)[C@@H](C(=O)Cn4nnnc4C)CC[C@@H]32)C1 [SM-3]		> 500	
CC[C@@]1(O)CC[C@H]2[C@@H](CC[C@@H]3[C@@H]2CC[C@]2(C)[C@@H](C(=O)Cn4ncnn4)CC[C@@H]32)C1 [SP-3]		100 to 500	
CC[C@@]1(O)CC[C@H]2[C@H](CC[C@@H]3[C@@H]2CC[C@]2(C)[C@@H](C(=O)Cn4nnc(C)n4)CC[C@@H]32)C1 [SE-6]	> 500	10 to 100	
CC[C@@]1(O)CC[C@H]2[C@@H](CC[C@@H]3[C@@H]2CC[C@]2(C)[C@@H](C(=O)Cn4ccnn4)CC[C@@H]32)C1 [SP-1]	> 500		
Cc1nnnn1CC(=O)[C@H]1CC[C@H]2[C@@H]3CC[C@H]4C[C@@](O)(CF)CC[C@@H]4[C@H]3CC[C@]12C [SD-2]		100 to 500	
CO[C@@H]1C[C@@H]2[C@H](CC[C@]3(C)[C@@H](C(=O)Cn4nccn4)CC[C@@H]23)[C@H]2CC[C@@](C)(O)C[C@H]21 [SL-2]	> 500	10 to 100	
CC[C@@]1(O)CC[C@H]2[C@@H](CC[C@@H]3[C@@H]2CC[C@]2(C)[C@@H](C(=O)Cn4nccn4)CC[C@@H]32)C1 [SP-2]	100 to 500	100 to 500	
C[C@]12CC[C@H]3[C@@H](CC[C@H]4C[C@@](O)(CF)CC[C@@H]43)[C@@H]1CC[C@@H]2C(=O)Cn1ccnn1 [SD-1]	> 500		
C[C@@]1(O)CC[C@H]2[C@H](CC[C@@H]3[C@@H]2CC[C@]2(C)[C@@H](C(=O)Cn4cncn4)CC[C@@H]32)C1 [SA-1]	100 to 500	100 to 500	
CO[C@H]1C[C@H]2[C@@H](CC[C@@H]3[C@@H]2CC[C@]2(C)[C@@H](C(=O)Cn4ccnn4)CC[C@@H]32)C[C@]1(C)O [SU-1]	100 to 500	100 to 500	
CCOC[C@@]1(O)CC[C@H]2[C@H](CC[C@@H]3[C@@H]2CC[C@]2(C)[C@@H](C(=O)Cn4nnc(C)n4)CC[C@@H]32)C1 [SO-2]	> 500		
CC[C@@]1(O)CC[C@H]2[C@@H](CC[C@@H]3[C@@H]2CC[C@]2(C)[C@@H](C(=O)Cn4nnc(C)n4)CC[C@@H]32)C1 [SP-5]		100 to 500	
CCOC[C@@]1(O)CC[C@H]2[C@@H](CC[C@@H]3[C@@H]2CC[C@]2(C)[C@@H](C(=O)Cn4nnc(C)n4)CC[C@@H]32)C1 [SQ-6]		100 to 500	
CCOC[C@@]1(O)CC[C@H]2[C@@H](CC[C@@H]3[C@@H]2CC[C@]2(C)[C@@H](C(=O)Cn4cnnn4)CC[C@@H]32)C1 [SQ-4]		100 to 500	
CCOC[C@@]1(O)CC[C@H]2[C@@H](CC[C@@H]3[C@@H]2CC[C@]2(C)[C@@H](C(=O)Cn4ncnn4)CC[C@@H]32)C1 [SQ-3]		> 500	
C[C@]12CC[C@H]3[C@@H](CC[C@H]4C[C@@](O)(C(F)F)CC[C@@H]43)[C@@H]1CC[C@@H]2C(=O)Cn1ccnn1 [SS-1]	100 to 500		
Cc1nnn(CC(=O)[C@H]2CC[C@H]3[C@@H]4CC[C@H]5C[C@@](O)(CF)CC[C@@H]5[C@H]4CC[C@]23C)n1 [SD-3]		100 to 500	
C[C@H]1C[C@H]2[C@@H](CC[C@@H]3[C@@H]2CC[C@]2(C)[C@@H](C(=O)Cn4ccnn4)CC[C@@H]32)C[C@]1(C)O [SZ-1]	50 to 100	100 to 500	
CC[C@@]1(O)CC[C@H]2[C@H](CC[C@@H]3[C@@H]2CC[C@]2(C)[C@@H](C(=O)Cn4ncnn4)CC[C@@H]32)C1 [SE-2]		> 500	
CO[C@@H]1C[C@@H]2[C@H](CC[C@]3(C)[C@@H](C(=O)Cn4ccnn4)CC[C@@H]23)[C@H]2CC[C@@](C)(O)C[C@H]21 [SL-1]	> 500	10 to 100	
C[C@@]1(O)CC[C@@H]2[C@H]3CC[C@]4(C)[C@@H](C(=O)Cn5nccn5)CC[C@H]4[C@@H]3C[C@@H](F)[C@@H]2C1 [SH-2]	> 500	100 to 500	
CO[C@@H]1C[C@@H]2[C@H](CC[C@]3(C)[C@@H](C(=O)Cn4nccn4)CC[C@@H]23)[C@H]2CC[C@@](C)(O)C[C@@H]21 [SW-2]	> 500		
C[C@]12CC[C@H]3[C@@H](CC[C@@H]4C[C@@](O)(CF)CC[C@@H]43)[C@@H]1CC[C@@H]2C(=O)Cn1cnnn1 [SF-1]	100 to 500	100 to 500	

Structure (SMILES)	IC50 [1] [nM]	Emax at 10 µM [2] [%]	Emax at 10 µM ([2]; in cremophor) [%]
C[C@]12CC[C@H]3[C@@H](CC[C@H]4C[C@@](O)(CF)CC[C@@H]43)[C@@H]1CC[C@@H]2C(=O)Cn1cnnn1 [SD-4]	> 500	100 to 500	
COC[C@@]1(O)CC[C@H]2[C@H](CC[C@@H]3[C@@H]2CC[C@]2(C)[C@@H](C(=O)Cn4cnnn4)CC[C@@H]32)C1 [SM-1]	100 to 500	100 to 500	
Cc1nnn(CC(=O)[C@H]2CC[C@H]3[C@@H]4CC[C@@H]5C[C@@](O)(C(F)F)CC[C@@H]5[C@H]4CC[C@]23C)n1 [SG-4]		100 to 500	
Cc1nnnn1CC(=O)[C@H]1CC[C@H]2[C@@H]3CC[C@@H]4C[C@@](O)(C(F)F)CC[C@@H]4[C@H]3CC[C@]12C [SG-3]		100 to 500	
CC[C@@]1(O)CC[C@H]2[C@@H](CC[C@@H]3[C@@H]2CC[C@]2(C)[C@@H](C(=O)Cn4nnnc4C)CC[C@@H]32)C1 [SP-4]	> 500	10 to 100	
CCOC[C@@]1(O)CC[C@H]2[C@H](CC[C@@H]3[C@@H]2CC[C@]2(C)[C@@H](C(=O)Cn4nnnc4C)CC[C@@H]32)C1 [SO-1]		100 to 500	
C[C@]12CC[C@H]3[C@@H](CC[C@@H]4C[C@@](O)(CF)CC[C@@H]43)[C@@H]1CC[C@@H]2C(=O)Cn1ccnn1 [SF-4]	100 to 500	100 to 500	
CCOC[C@@]1(O)CC[C@H]2[C@@H](CC[C@@H]3[C@@H]2CC[C@]2(C)[C@@H](C(=O)Cn4ccnn4)CC[C@@H]32)C1 [SQ-1]	> 500		
C[C@@]1(O)CC[C@H]2[C@H](CC[C@@H]3[C@@H]2CC[C@]2(C)[C@@H](C(=O)Cn4nnc(C(F)(F)F)n4)CC[C@@H]32)C1 [SA-8]		100 to 500	
C[C@@H]1C[C@H]2[C@@H](CC[C@@H]3[C@@H]2CC[C@]2(C)[C@@H](C(=O)Cn4ccnn4)CC[C@@H]32)C[C@]1(C)O [SN-1]	50 to 100	100 to 500	
Cc1cn(CC(=O)[C@H]2CC[C@H]3[C@@H]4C[C@@H](F)[C@H]5C[C@](C)(O)CC[C@@H]5[C@H]4CC[C@]23C)nn1 [SV-8]		> 500	
Cc1cn(CC(=O)[C@H]2CC[C@H]3[C@@H]4CC[C@@H]5C[C@](C)(O)CC[C@@H]5[C@H]4CC[C@]23C)nn1 [SA-5]		> 500	
CCOC[C@@]1(O)CC[C@H]2[C@@H](CC[C@@H]3[C@@H]2CC[C@]2(C)[C@@H](C(=O)Cn4nccn4)CC[C@@H]32)C1 [SQ-2]		100 to 500	
C[C@@]1(O)CC[C@H]2[C@H](CC[C@@H]3[C@@H]2CC[C@]2(C)[C@@H](C(=O)Cn4cc(C#N)nn4)CC[C@@H]32)C1 [SA-20]			100 to 500
C[C@@]1(O)CC[C@@H]2[C@H]3CC[C@]4(C)[C@@H](C(=O)Cn5ccnn5)CC[C@H]4[C@@H]3C[C@@H](F)[C@@H]2C1 [SH-1]	> 500		
COC[C@@]1(O)CC[C@H]2[C@H](CC[C@@H]3[C@@H]2CC[C@]2(C)[C@@H](C(=O)Cn4ccnn4)CC[C@@H]32)C1 [SM-5]	100 to 500	> 500	
CC[C@@]1(O)CC[C@H]2[C@H](CC[C@@H]3[C@@H]2CC[C@]2(C)[C@@H](C(=O)Cn4cnnn4)CC[C@@H]32)C1 [SE-1]		100 to 500	
Cc1cnnn1CC(=O)[C@H]1CC[C@H]2[C@@H]3C[C@@H](F)[C@H]4C[C@](C)(O)CC[C@@H]4[C@H]3CC[C@]12C [SV-9]		100 to 500	
CC[C@@]1(O)CC[C@H]2[C@H](CC[C@@H]3[C@@H]2CC[C@]2(C)[C@@H](C(=O)Cn4ccnn4)CC[C@@H]32)C1 [SE-3]	100 to 500	100 to 500	
CCO[C@H]1C[C@H]2[C@@H](CC[C@@H]3[C@@H]2CC[C@]2(C)[C@@H](C(=O)Cn4ccnn4)CC[C@@H]32)C[C@]1(C)O [SY-1]	100 to 500	100 to 500	
COC[C@@]1(O)CC[C@H]2[C@H](CC[C@@H]3[C@@H]2CC[C@]2(C)[C@@H](C(=O)Cn4nnc(C)n4)CC[C@@H]32)C1 [SM-4]		> 500	
Cc1cnn(CC(=O)[C@H]2CC[C@H]3[C@@H]4C[C@@H](F)[C@H]5C[C@](C)(O)CC[C@@H]5[C@H]4CC[C@]23C)n1 [SV-7]		100 to 500	
CC[C@@]1(O)CC[C@H]2[C@H](CC[C@@H]3[C@@H]2CC[C@]2(C)[C@@H](C(=O)Cn4nnnc4C)CC[C@@H]32)C1 [SE-5]	> 500		
